Test results as given in US20160361302A1, “SNS-595 AND METHODS OF USING THE SAME” (Sunesis Pharmaceuticals, Inc., priority 2004, published 2016).
Read-outs that look alike come from different tables or passages of the source.

Assay: Pharmacokinetics of SNS-595 in cancer patients
Assay type: in vivo, human
Conditions: for AUC(0-inf): read-out: AUCINF_obs
Experimental: SNS-595 was administered to enrolled patients for up to six cycles. A cycle is defined as a three-week period, with SNS-595 administered on the first day of each cycle (day 0), followed by at least 21 days of observation. SNS-595 was administered to cohorts of at least 3 patients and dose escalation occurred by sequential cohort.

[1] = dose 6 mg/m2, cancer patients, plasma
[2] = dose 12 mg/m2, cancer patients, plasma
[3] = dose 24 mg/m2, cancer patients, plasma
[4] = dose 48 mg/m2, cancer patients, plasma
[5] = human, dose 12 mg/m2, cancer patients, plasma

CN[C@H]1CN(c2ccc3c(=O)c(C(=O)O)cn(-c4nccs4)c3n2)C[C@@H]1OC [SNS-595, (+)-1,4-dihydro-7-[(3S,4S)-3-methoxy-4-(methylamino)-1-pyrrolidinyl]-4-oxo-1-(2-thiazoyl)-1,8-naphthyridine-3-carboxylic acid]
Vs_obs (dose 2 mg/m2, cancer patients, plasma): 1.38 L/kg
AUClast [1]: 2408.08 ng·h/mL
CI_obs [1]: 0.71 mL/min/kg
Cmax [1]: 347.06 ng/mL
Vs_obs [1]: 1.28 L/kg
CI_obs [2]: 0.78 mL/min/kg
Vs_obs [2]: 1.17 L/kg
AUClast [3]: 11132.02 ng·h/mL
CI_obs [3]: 0.83 mL/min/kg
Cmax [3]: 2702.33 ng/mL
Vs_obs [3]: 1.18 L/kg
Cmax [4]: 2342.00 ng/mL
Vs_obs [4]: 1.37 L/kg
AUC(0-inf) (human, dose 6 mg/m2, cancer patients, plasma): 2800 ng·h/mL
AUC(0-t) [5]: ~6280 ng·h/mL
AUC(0-inf) [5]: 5230 ng·h/mL
Consistency of pharmacokinetic properties among patients (patients in the same cohort): remarkably consistent among patients in the same cohort
